Measurements as given in US7939267B2, “Detection of activation of endothelial cells as surrogate marker for angiogenesis” (Laboratory Corporation of America Holdings, priority 2004, dated 2011).
Where two headings read alike, the source gives them in different places. Blank lines part the entries; values can stand above or below the molecule they belong to.

Experiments:
Akt = conditions: HUVEC, increasing VEGF concentrations, data not shown
Source text: Results of the assays are illustrated in FIGS. 10A, 10B and 10C.

RSK = conditions: HUVEC, increasing VEGF concentrations, 5 min stimulation time (FIG. 10B)
Description: (§1) • 1. Serum-starve human umbilical vein endothelial cell line (HUVEC) culture overnight before use. • 2. Stimulate cell lines with VEGF in culture media for a set period of time (1, 3, 5, 9, 14 minutes) at 37° C. Exemplary doses of VEGF are 0, 2, 10, 25, 50, 250, 1000 ng/mL. • 3. Aspirate culture media, transfer onto ice, and add lysis buffer to lyse cells in situ. • 4. Scrape and transfer lysate to microfuge tube. Incubate on ice for 30 min. Microfuge at 14,000 rpm, 4° C., for 10 min. (Centrifugation is optional.) • 5. Collect supernatants as lysates and aliquot for storage at −80° C. until use. Assay:
(§2) The total assay volume was 40 ul. The lysate volume was adjusted to 30 ul with lysis buffer.

Erk = conditions: HUVEC, increasing VEGF concentrations, 5 min stimulation time (FIG. 10A)
Description: as §1, §2

BAD = BAD phosphorylation in HUVEC cell lysates, releasable molecular tag assay; assay type: cell-based, human; conditions: increasing VEGF concentrations, 5 min stimulation time (FIG. 10C)
Description: • 1. […] Scrape and transfer lysate to microfuge tube. Incubate on ice for 30 min. […] (Centrifugation is optional.) • 5. […] Assay:
(§3) The total assay volume was 40 ul. […] The detection limit was ˜1000 cell-equivalent of lysates.
Pro52_anti-BAD (Total), 5 nM
Pro46_anti-Phospho-BAD (Phosphorylation), 5 nM
Pro53_anti-phospho-RSK (Phosphorylation), 5 nM • 1. […] Add 20 μl of Antibody mixture. • 3. […] Empty filter plate by vacuum suction. • 6. […] Repeat step 6 one more time. • 8. […] Illuminate the plate for 10 min. • 10.

VEGFR2-VEGFR2 homodimers [1] = molecular target: T1, VEGFR2-VEGFR2 homodimers (Homo sapiens, UniProt P35968)
Description: (§4) In this example, VEGFR2-VEGFR2 homodimers and phosphorylation states were measured in cell lysates from several cell lines after treatment with various concentrations of vascular endothelial growth factor (VEGF). Measurements were made using three binding compounds and a cleaving probe as described below.
as §1
(§5) Assay design: As illustrated diagrammatically in FIG. 7A, VEGFR2-VEGFR2 (R2-R2) homodimers (900) are quantified ratiometrically based on the binding of a cleaving probe (902), a first bind compound (904) which is specific for the same antigenic determinant on VEGFR2 as the cleaving probe, a second binding compound (906) which is specific for a different antigenic determinant on VEGFR2 from the cleaving probe, and a third binding compound (908) which is specific for phosphorylated tyrosine. A photosensitizer is attached to the cleaving probe (902) via an avidin-biotin linkage, and the first, second, and third binding compounds are labeled with molecular tags Pro10, Pro14, and Pro2, respectively.
(§6) The total assay volume was 40 ul. The lysate volume was adjusted to 30 ul with lysis buffer. The antibodies are diluted in lysis buffer up to 10 ul. Typically ˜5000 to 15000 cell-equivalent of lysates is used per reaction. The detection limit is ˜1000 cell-equivalent of lysates.
(§7) Procedure: Final concentrations of pre-mixed binding compounds (i.e. molecular tag- or biotin-antibody conjugates) in reaction: • Pro10_anti-VEGFR2: 0.25 ug/ml (VEGFR2 homodimer) • Pro14_anti-VEGFR2: 0.25 ug/ml (total VEGFR2) • Pro2_anti-phospho-Tyr: 0.0125 ug/ml (phosphorylation) • Biotin_anti-VEGFR2: 0.25 ug/ml • 1. To assay 96-well, add 10 ul antibody mix to 30 ul lysate and incubate for 1 hour at RT. • 2. Add 2 ul streptavidin-derivatized cleaving probe (final 2 ug/well) to assay well and incubate for 45 min. • 3. Add 150 ul of wash buffer to 96-well filter plate (Millipore MAGVN2250) and incubate for 1 hr at RT for blocking. • 4. Empty filter plate by vacuum suction.

VEGFR2 = VEGFR2 (Homo sapiens, UniProt P35968)
Description: as §4, §1, §5, §6, §7

VEGFR2-VEGFR2 homodimers [2] = molecular target: T1, VEGFR2-VEGFR2 homodimers; remark: listed apart in the source
Description: • 1. […] Scrape and transfer lysate to microfuge tube. Incubate on ice for 30 min. […]

Tie2-Tie2 homodimers = molecular target: T2, Tie2-Tie2 homodimers (Homo sapiens, UniProt Q02763); test: Tie2 homodimerization in HUVEC cell lysates, releasable molecular tag assay; assay type: cell-based
T2 construct: endogenous in cells; host or cells: HUVEC
Description: (§8) • 1. […] Stimulate cell lines with 200 ng/mL Ang-1 in culture media for a set period of time (10, 30 minutes) at 37° C. • 3. […] Scrape and transfer lysate to microfuge tube. Incubate on ice for 30 min. […] (Centrifugation is optional.) • 5. […] Assay:
(§9) Assay design: As illustrated diagrammatically in FIG. 4C, Tie2-Tie2 homodimers are quantified ratiometrically based on the binding of cleaving probe (134) and binding compounds (130), and (132). A photosensitizer indicated by “PS” is attached to cleaving probe (134) via an avidin-biotin linkage, and binding compounds (130), and (132) are labeled with molecular tags Pro10, and Pro14, respectively.
as §3
Pro10_anti-Tie2: 0.25 ug/ml (Tie2 homodimer)
(§10) Pro14_anti-Tie2: 0.25 ug/ml (total Tie2)
(§11) Biotin_anti-Tie2: 0.25 ug/ml • 1. […] Empty filter plate by vacuum suction. […] Repeat one time. • 6. […] Repeat one time. • 7. […] Assay buffers are as previously described. Data Analysis: • 1. […] Report homodimerization of Tie2 as the corresponding RFU ratiometric to RFU from Pro14_anti-Tie2 from assay wells using biotin_anti-Tie2.

Tie2 = molecular target: T3, Tie2 (Homo sapiens, UniProt Q02763); test: Total Tie2 receptor in HUVEC cell lysates, releasable molecular tag assay; assay type: cell-based; conditions: Ang-1 treatment (FIG. 8B)
T3 construct: endogenous in cells; host or cells: HUVEC
Description: as §8, §9, §3, §10, §11

T1 sequence (P35968 20-1356): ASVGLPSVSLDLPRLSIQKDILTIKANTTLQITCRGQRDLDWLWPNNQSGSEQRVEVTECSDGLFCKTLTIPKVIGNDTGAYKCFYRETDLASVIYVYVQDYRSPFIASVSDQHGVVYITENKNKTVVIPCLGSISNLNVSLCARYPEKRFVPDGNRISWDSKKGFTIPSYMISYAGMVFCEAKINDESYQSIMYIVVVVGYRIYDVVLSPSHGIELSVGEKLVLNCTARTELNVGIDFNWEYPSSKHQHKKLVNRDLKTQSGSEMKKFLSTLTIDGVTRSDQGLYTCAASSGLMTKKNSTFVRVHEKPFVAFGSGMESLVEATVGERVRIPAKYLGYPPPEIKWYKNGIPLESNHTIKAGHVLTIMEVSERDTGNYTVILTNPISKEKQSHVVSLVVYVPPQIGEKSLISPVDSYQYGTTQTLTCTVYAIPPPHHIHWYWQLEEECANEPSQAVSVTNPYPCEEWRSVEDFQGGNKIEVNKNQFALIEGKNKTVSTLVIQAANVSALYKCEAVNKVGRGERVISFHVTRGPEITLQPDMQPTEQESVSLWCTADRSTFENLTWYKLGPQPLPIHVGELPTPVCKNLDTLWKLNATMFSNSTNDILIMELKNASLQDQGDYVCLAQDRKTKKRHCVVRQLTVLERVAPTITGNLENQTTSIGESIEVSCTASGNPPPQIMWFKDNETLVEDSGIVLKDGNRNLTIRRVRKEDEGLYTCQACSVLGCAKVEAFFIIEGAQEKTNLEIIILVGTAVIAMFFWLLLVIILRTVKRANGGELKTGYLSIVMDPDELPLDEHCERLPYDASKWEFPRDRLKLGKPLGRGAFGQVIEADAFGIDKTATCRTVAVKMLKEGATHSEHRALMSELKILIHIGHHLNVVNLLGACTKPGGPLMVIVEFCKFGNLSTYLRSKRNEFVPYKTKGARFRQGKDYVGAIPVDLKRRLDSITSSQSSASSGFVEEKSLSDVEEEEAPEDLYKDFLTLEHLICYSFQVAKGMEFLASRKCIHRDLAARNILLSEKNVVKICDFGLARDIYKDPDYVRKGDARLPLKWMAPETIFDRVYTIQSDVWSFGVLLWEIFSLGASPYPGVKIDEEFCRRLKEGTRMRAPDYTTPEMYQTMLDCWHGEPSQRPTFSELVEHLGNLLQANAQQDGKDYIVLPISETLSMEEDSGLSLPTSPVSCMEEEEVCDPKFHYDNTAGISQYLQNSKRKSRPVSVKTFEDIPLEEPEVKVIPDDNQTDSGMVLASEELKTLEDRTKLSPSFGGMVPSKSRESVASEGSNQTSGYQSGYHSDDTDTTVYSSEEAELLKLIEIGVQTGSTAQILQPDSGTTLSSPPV
VEGFR2, sequence (P35968 20-1356): as above
T2 sequence (Q02763 23-1124): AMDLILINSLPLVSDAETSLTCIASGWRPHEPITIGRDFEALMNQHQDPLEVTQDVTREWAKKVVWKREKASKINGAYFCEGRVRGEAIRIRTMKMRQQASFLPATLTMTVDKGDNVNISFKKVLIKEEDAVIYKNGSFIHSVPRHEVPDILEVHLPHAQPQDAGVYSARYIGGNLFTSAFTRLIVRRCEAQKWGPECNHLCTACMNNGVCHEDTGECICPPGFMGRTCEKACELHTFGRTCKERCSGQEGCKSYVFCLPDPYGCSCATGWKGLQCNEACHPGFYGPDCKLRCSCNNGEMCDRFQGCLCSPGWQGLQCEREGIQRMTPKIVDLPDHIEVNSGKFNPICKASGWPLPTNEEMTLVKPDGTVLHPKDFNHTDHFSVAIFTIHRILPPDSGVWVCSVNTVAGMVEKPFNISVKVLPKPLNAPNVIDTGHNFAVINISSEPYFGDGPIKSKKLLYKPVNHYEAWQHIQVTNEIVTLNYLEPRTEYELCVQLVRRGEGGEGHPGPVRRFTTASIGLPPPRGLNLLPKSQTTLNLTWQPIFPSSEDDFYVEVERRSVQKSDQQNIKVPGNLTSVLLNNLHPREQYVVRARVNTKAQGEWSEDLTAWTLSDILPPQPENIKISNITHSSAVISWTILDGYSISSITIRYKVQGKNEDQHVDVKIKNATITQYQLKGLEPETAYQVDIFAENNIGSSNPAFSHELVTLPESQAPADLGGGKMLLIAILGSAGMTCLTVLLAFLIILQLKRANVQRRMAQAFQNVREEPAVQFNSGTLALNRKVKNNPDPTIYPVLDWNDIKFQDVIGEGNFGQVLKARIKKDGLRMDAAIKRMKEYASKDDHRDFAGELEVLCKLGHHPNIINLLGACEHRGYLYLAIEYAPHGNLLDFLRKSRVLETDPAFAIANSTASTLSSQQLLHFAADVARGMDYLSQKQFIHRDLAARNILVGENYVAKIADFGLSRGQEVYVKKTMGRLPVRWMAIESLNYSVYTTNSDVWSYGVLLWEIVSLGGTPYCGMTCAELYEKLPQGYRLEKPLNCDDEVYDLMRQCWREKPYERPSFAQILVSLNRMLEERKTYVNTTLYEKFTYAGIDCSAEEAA
T3 sequence (Q02763 23-1124): as above

Molecule: VEGF
phosphorylation of Akt (Akt): increased on HUVEC cells with increasing concentrations of VEGF
phosphorylation state of RSK (RSK): increases on HUVEC cells with increasing concentrations of VEGF
phosphorylation state of Erk (Erk): increases on HUVEC cells with increasing concentrations of VEGF
phosphorylation state of BAD (BAD): increases on HUVEC cells with increasing concentrations of VEGF
VEGFR2-VEGFR2 homodimer formation over time (VEGFR2-VEGFR2 homodimers [1]): form by 1 minute of VEGF stimulation, and remain after up to 14 minutes of stimulation
VEGFR2 homodimerization (VEGFR2-VEGFR2 homodimers [1]): large increase in VEGFR2 homodimerization
quantity of VEGFR2-VEGFR2 homodimers (VEGFR2-VEGFR2 homodimers [1]): increases on HUVEC cells with increasing concentrations of VEGF
VEGFR2 phosphorylation (VEGFR2): increases on HUVEC cells with increasing concentrations of VEGF
VEGFR2 phosphorylation over time (VEGFR2): transient, peaking at 1 minute of stimulation and decreasing to background level by 5 minutes
VEGFR2 homodimerization (VEGFR2-VEGFR2 homodimers [2]): large increase in VEGFR2 homodimerization

quantity of Tie2-Tie2 homodimers (Tie2-Tie2 homodimers; 200 ng/mL Ang-1, 10 min of stimulation (FIG. 8A)): increase on HUVEC cells
quantity of Tie2-Tie2 homodimers (Tie2-Tie2 homodimers; 200 ng/mL Ang-1, 30 min stimulation (FIG. 8A)): decreases from that level
total amount of Tie2 receptor (Tie2): does not change with Ang-1 treatment
B1: Ang-1: angiopoietin-1, major physiological ligand for Tie-2, used to stimulate HUVEC cells (protein, UniProt Q15389 16-498, looked up)
Angiopoietin-1: HIGCSNQRRSPENSGRRYNRIQHGQCAYTFILPEHDGNCRESTTDQYNTNALQRDAPHVEPDFSSQKLQHLEHVMENYTQWLQKLENYIVENMKSEMAQIQQNAVQNHTATMLEIGTSLLSQTAEQTRKLTDVETQVLNQTSRLEIQLLENSLSTYKLEKQLLQQTNEILKIHEKNSLLEHKILEMEGKHKEELDTLKEEKENLQGLVTRQTYIIQELEKQLNRATTNNSVLQKQQLELMDTVHNLVNLCTKEGVLLKGGKREEEKPFRDCADVYQAGFNKSGIYTIYINNMPEPKKVFCNMDVNGGGWTVIQHREDGSLDFQRGWKEYKMGFGNPSGEYWLGNEFIFAITSQRQYMLRIELMDWEGNRAYSQYDRFHIGNEKQNYRLYLKGHTGTAGKQSSLILHGADFSTKDADNDNCMCKCALMLTGGWWFDACGPSNLNGMFYTAGQNHGKLNGIKWHYFKGPSYSLRSTTMMIRPLDF
